Data published in ChEMBL document CHEMBL5724914, “Linking interpersonal differences in gut microbiota composition and drug biotransformation activity” (2024).

Test: (§1) The drug is tested on Z-010 corresponding to metagenome with ENA study accession number: PRJEB37062 and ENA sample accession number: ERS12561810 for biotransformation under anaerobic condition. The drug concentrations were measured over 9 timepoints collected between 0 and 24 hours of incubation by liquid-chromatography-coupled mass spectrometry (LC–MS)
Details: 2 µM
Note: call rule not given here.

| Bacterial Biotransformation | SMILES |
| --- | --- |
| Compound metabolized | CC(=O)OCC(CCn1cnc2cnc(N)nc21)COC(C)=O [FAMCICLOVIR] |
| Compound metabolized | CC(C)(C)NC(=O)[C@H]1CC[C@H]2[C@@H]3CC[C@H]4NC(=O)C=C[C@]4(C)[C@H]3CC[C@]12C [FINASTERIDE] |

Test: (§2) The drug is tested on Z-018 corresponding to pig gut metagenome with ENA study accession number: PRJEB37062 and ENA sample accession number: ERS12561817 for biotransformation under anaerobic condition. The drug concentrations were measured over 9 timepoints collected between 0 and 24 hours of incubation by liquid-chromatography-coupled mass spectrometry (LC–MS)
Details: 2 µM

| Bacterial Biotransformation | SMILES |
| --- | --- |
| Compound metabolized | CC(C)(C)NC(=O)[C@H]1CC[C@H]2[C@@H]3CC[C@H]4NC(=O)C=C[C@]4(C)[C@H]3CC[C@]12C [FINASTERIDE] |

Test: as §2, with “WLS-027” for “Z-018”, “human” for “pig”, “ERS12561744” for “ERS12561817”
Details: 2 µM

| Bacterial Biotransformation | SMILES |
| --- | --- |
| Compound metabolized | CC(=O)OCC(CCn1cnc2cnc(N)nc21)COC(C)=O [FAMCICLOVIR] |
| Compound metabolized | CC(C)(C)NC(=O)[C@H]1CC[C@H]2[C@@H]3CC[C@H]4NC(=O)C=C[C@]4(C)[C@H]3CC[C@]12C [FINASTERIDE] |

Test: as §2, with “WLS-090” for “Z-018”, “human” for “pig”, “ERS12561753” for “ERS12561817”
Details: 2 µM

| Bacterial Biotransformation | SMILES |
| --- | --- |
| Compound metabolized | CC(=O)OCC(CCn1cnc2cnc(N)nc21)COC(C)=O [FAMCICLOVIR] |
| Compound metabolized | CC(C)(C)NC(=O)[C@H]1CC[C@H]2[C@@H]3CC[C@H]4NC(=O)C=C[C@]4(C)[C@H]3CC[C@]12C [FINASTERIDE] |

Test: as §1, with “Z-021” for “Z-010”, “ERS12561820” for “ERS12561810”
Details: 2 µM

| Bacterial Biotransformation | SMILES |
| --- | --- |
| Compound NOT metabolized | CC(=O)OCC(CCn1cnc2cnc(N)nc21)COC(C)=O [FAMCICLOVIR] |
| Compound NOT metabolized | CC(C)(C)NC(=O)[C@H]1CC[C@H]2[C@@H]3CC[C@H]4NC(=O)C=C[C@]4(C)[C@H]3CC[C@]12C [FINASTERIDE] |

Details: human gut metagenome, 24 h, 2 µM

| Bacterial Biotransformation | SMILES |
| --- | --- |
| Compound metabolized | CC(=O)OCC(CCn1cnc2cnc(N)nc21)COC(C)=O [FAMCICLOVIR] |
| Compound metabolized | CC(C)(C)NC(=O)[C@H]1CC[C@H]2[C@@H]3CC[C@H]4NC(=O)C=C[C@]4(C)[C@H]3CC[C@]12C [FINASTERIDE] |

Test: as §2, with “WLS-082” for “Z-018”, “human” for “pig”, “ERS12561751” for “ERS12561817”
Details: 2 µM

| Bacterial Biotransformation | SMILES |
| --- | --- |
| Compound metabolized | CC(=O)OCC(CCn1cnc2cnc(N)nc21)COC(C)=O [FAMCICLOVIR] |
| Compound metabolized | CC(C)(C)NC(=O)[C@H]1CC[C@H]2[C@@H]3CC[C@H]4NC(=O)C=C[C@]4(C)[C@H]3CC[C@]12C [FINASTERIDE] |

Test: as §2, with “WLS-086” for “Z-018”, “human” for “pig”, “ERS12561752” for “ERS12561817”
Details: 2 µM

| Bacterial Biotransformation | SMILES |
| --- | --- |
| Compound metabolized | CC(=O)OCC(CCn1cnc2cnc(N)nc21)COC(C)=O [FAMCICLOVIR] |
| Compound metabolized | CC(C)(C)NC(=O)[C@H]1CC[C@H]2[C@@H]3CC[C@H]4NC(=O)C=C[C@]4(C)[C@H]3CC[C@]12C [FINASTERIDE] |

Details: human gut metagenome, 24 h, 2 µM
Remark: another data set of the same source

| Bacterial Biotransformation | SMILES |
| --- | --- |
| Compound metabolized | CC(=O)OCC(CCn1cnc2cnc(N)nc21)COC(C)=O [FAMCICLOVIR] |
| Compound metabolized | CC(C)(C)NC(=O)[C@H]1CC[C@H]2[C@@H]3CC[C@H]4NC(=O)C=C[C@]4(C)[C@H]3CC[C@]12C [FINASTERIDE] |

Test: as §2, with “WLS-039” for “Z-018”, “human” for “pig”, “ERS12561746” for “ERS12561817”
Details: 2 µM

| Bacterial Biotransformation | SMILES |
| --- | --- |
| Compound metabolized | CC(=O)OCC(CCn1cnc2cnc(N)nc21)COC(C)=O [FAMCICLOVIR] |
| Compound metabolized | CC(C)(C)NC(=O)[C@H]1CC[C@H]2[C@@H]3CC[C@H]4NC(=O)C=C[C@]4(C)[C@H]3CC[C@]12C [FINASTERIDE] |

Test: as §2, with “Z-014” for “Z-018”, “rat” for “pig”, “ERS12561814” for “ERS12561817”
Details: 2 µM

| Bacterial Biotransformation | SMILES |
| --- | --- |
| Compound metabolized | CC(=O)OCC(CCn1cnc2cnc(N)nc21)COC(C)=O [FAMCICLOVIR] |
| Compound NOT metabolized | CC(C)(C)NC(=O)[C@H]1CC[C@H]2[C@@H]3CC[C@H]4NC(=O)C=C[C@]4(C)[C@H]3CC[C@]12C [FINASTERIDE] |

Test: as §2, with “Z-019” for “Z-018”, “rat” for “pig”, “ERS12561818” for “ERS12561817”
Details: 2 µM

| Bacterial Biotransformation | SMILES |
| --- | --- |
| Compound NOT metabolized | CC(=O)OCC(CCn1cnc2cnc(N)nc21)COC(C)=O [FAMCICLOVIR] |

Details: human gut metagenome, 24 h, 2 µM
Remark: another data set of the same source

| Bacterial Biotransformation | SMILES |
| --- | --- |
| Compound metabolized | CC(=O)OCC(CCn1cnc2cnc(N)nc21)COC(C)=O [FAMCICLOVIR] |
| Compound metabolized | CC(C)(C)NC(=O)[C@H]1CC[C@H]2[C@@H]3CC[C@H]4NC(=O)C=C[C@]4(C)[C@H]3CC[C@]12C [FINASTERIDE] |

Test: as §2, with “WLS-170” for “Z-018”, “human” for “pig”, “ERS12561762” for “ERS12561817”
Details: 2 µM

| Bacterial Biotransformation | SMILES |
| --- | --- |
| Compound metabolized | CC(=O)OCC(CCn1cnc2cnc(N)nc21)COC(C)=O [FAMCICLOVIR] |
| Compound metabolized | CC(C)(C)NC(=O)[C@H]1CC[C@H]2[C@@H]3CC[C@H]4NC(=O)C=C[C@]4(C)[C@H]3CC[C@]12C [FINASTERIDE] |

Details: human gut metagenome, 24 h, 2 µM
Remark: another data set of the same source

| Bacterial Biotransformation | SMILES |
| --- | --- |
| Compound metabolized | CC(=O)OCC(CCn1cnc2cnc(N)nc21)COC(C)=O [FAMCICLOVIR] |
| Compound metabolized | CC(C)(C)NC(=O)[C@H]1CC[C@H]2[C@@H]3CC[C@H]4NC(=O)C=C[C@]4(C)[C@H]3CC[C@]12C [FINASTERIDE] |

Test: as §2, with “Z-001” for “Z-018”, “mouse” for “pig”, “ERS12561801” for “ERS12561817”
Details: 2 µM

| Bacterial Biotransformation | SMILES |
| --- | --- |
| Compound NOT metabolized | CC(=O)OCC(CCn1cnc2cnc(N)nc21)COC(C)=O [FAMCICLOVIR] |
| Compound NOT metabolized | CC(C)(C)NC(=O)[C@H]1CC[C@H]2[C@@H]3CC[C@H]4NC(=O)C=C[C@]4(C)[C@H]3CC[C@]12C [FINASTERIDE] |

Test: as §2, with “Z-017” for “Z-018”, “mouse” for “pig”, “ERS12561816” for “ERS12561817”
Details: 2 µM

| Bacterial Biotransformation | SMILES |
| --- | --- |
| Compound metabolized | CC(=O)OCC(CCn1cnc2cnc(N)nc21)COC(C)=O [FAMCICLOVIR] |
| Compound NOT metabolized | CC(C)(C)NC(=O)[C@H]1CC[C@H]2[C@@H]3CC[C@H]4NC(=O)C=C[C@]4(C)[C@H]3CC[C@]12C [FINASTERIDE] |

Details: human gut metagenome, 24 h, 2 µM
Remark: another data set of the same source

| Bacterial Biotransformation | SMILES |
| --- | --- |
| Compound metabolized | CC(=O)OCC(CCn1cnc2cnc(N)nc21)COC(C)=O [FAMCICLOVIR] |
| Compound metabolized | CC(C)(C)NC(=O)[C@H]1CC[C@H]2[C@@H]3CC[C@H]4NC(=O)C=C[C@]4(C)[C@H]3CC[C@]12C [FINASTERIDE] |

Details: human gut metagenome, 24 h, 2 µM
Remark: another data set of the same source

| Bacterial Biotransformation | SMILES |
| --- | --- |
| Compound metabolized | CC(=O)OCC(CCn1cnc2cnc(N)nc21)COC(C)=O [FAMCICLOVIR] |
| Compound metabolized | CC(C)(C)NC(=O)[C@H]1CC[C@H]2[C@@H]3CC[C@H]4NC(=O)C=C[C@]4(C)[C@H]3CC[C@]12C [FINASTERIDE] |

Test: as §1, with “Z-005” for “Z-010”, “ERS12561805” for “ERS12561810”
Details: 2 µM

| Bacterial Biotransformation | SMILES |
| --- | --- |
| Compound metabolized | CC(=O)OCC(CCn1cnc2cnc(N)nc21)COC(C)=O [FAMCICLOVIR] |
| Compound metabolized | CC(C)(C)NC(=O)[C@H]1CC[C@H]2[C@@H]3CC[C@H]4NC(=O)C=C[C@]4(C)[C@H]3CC[C@]12C [FINASTERIDE] |
